Measured values reported in ChEMBL document CHEMBL1201862, “PubChem BioAssay data set” (2004).
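Five concentrations, 48 hours, 96-well plates. The concentration for 50% growth inhibition is given as GI50.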 The source made the active and inactive calls. Rule as the data show it: active = GI50 up to about 1.1 µM and inactive = higher.

How the values were obtained:
Test in all cases: DTP human tumour cell line panel, 48 h
OVCAR-8 = tested on: OVCAR-8
SK-MEL-2 = tested on: SK-MEL-2
TK-10 = tested on: TK-10
NCI/ADR-RES = tested on: NCI/ADR-RES
UACC-257 = tested on: UACC-257
NCI-H226 = tested on: NCI-H226
SN12C = tested on: SN12C
OVCAR-5 = tested on: OVCAR-5
SK-MEL-28 = tested on: SK-MEL-28
SF-268 = tested on: SF-268
A498 = tested on: A498
HOP-92 = tested on: HOP-92
MOLT-4 = tested on: MOLT-4
ACHN = tested on: ACHN
Malme-3M = tested on: Malme-3M
SK-OV-3 = tested on: SK-OV-3
NCI-H23 = tested on: NCI-H23
UACC-62 = tested on: UACC-62
IGROV-1 = tested on: IGROV-1
KM12 = tested on: KM12

SMILES	GI50 (OVCAR-8)	GI50 (SK-MEL-2)	GI50 (TK-10)	GI50 (NCI/ADR-RES)	GI50 (UACC-257)	GI50 (NCI-H226)	GI50 (SN12C)	GI50 (OVCAR-5)	GI50 (SK-MEL-28)	GI50 (SF-268)	GI50 (A498)	GI50 (HOP-92)	GI50 (MOLT-4)	GI50 (ACHN)	GI50 (Malme-3M)	GI50 (SK-OV-3)	GI50 (NCI-H23)	GI50 (UACC-62)	GI50 (IGROV-1)	GI50 (KM12)
COc1cc(/N=C\N(C)C)c2ncccc2c1	51.8 µM (inactive)	46.2 µM (inactive)	> 100 µM (inactive)	45.4 µM (inactive)	> 100 µM (inactive)	49.4 µM (inactive)	> 100 µM (inactive)	> 100 µM (inactive)	> 100 µM (inactive)	66.1 µM (inactive)	42.7 µM (inactive)	32.1 µM (inactive)	35.7 µM (inactive)	> 100 µM (inactive)	> 100 µM (inactive)	> 100 µM (inactive)	> 100 µM (inactive)	54.1 µM (inactive)	33.9 µM (inactive)	
CC(=O)Nc1ccc(S(=O)(=O)N=S(C)C)cc1	> 100 µM (inactive)	> 100 µM (inactive)	> 100 µM (inactive)	> 100 µM (inactive)	> 100 µM (inactive)	> 100 µM (inactive)	> 100 µM (inactive)	> 100 µM (inactive)	> 100 µM (inactive)	> 100 µM (inactive)	> 100 µM (inactive)	> 100 µM (inactive)	> 100 µM (inactive)	> 100 µM (inactive)	> 100 µM (inactive)	> 100 µM (inactive)	> 100 µM (inactive)	> 100 µM (inactive)	> 100 µM (inactive)	> 100 µM (inactive)
O=C(O)[C@@H]1[C@H](C(=O)O)[C@H](C(=O)O)C[C@@H]1C(=O)O	> 100 µM (inactive)	> 100 µM (inactive)	> 100 µM (inactive)	> 100 µM (inactive)	> 100 µM (inactive)	> 100 µM (inactive)	> 100 µM (inactive)	> 100 µM (inactive)	> 100 µM (inactive)	> 100 µM (inactive)	> 100 µM (inactive)	> 100 µM (inactive)	> 100 µM (inactive)	> 100 µM (inactive)	> 100 µM (inactive)	> 100 µM (inactive)	> 100 µM (inactive)	> 100 µM (inactive)	> 100 µM (inactive)	> 100 µM (inactive)
O=C(c1ccccc1)c1c(-c2ccccc2)[nH]n(-c2ccc([N+](=O)[O-])cc2)c(=O)c1=O	31.1 µM (inactive)	21.1 µM (inactive)	91.8 µM (inactive)	49.5 µM (inactive)	41.5 µM (inactive)	39.7 µM (inactive)	57.3 µM (inactive)	> 100 µM (inactive)	21 µM (inactive)	40.2 µM (inactive)	> 100 µM (inactive)	16.8 µM (inactive)	37.2 µM (inactive)	99.1 µM (inactive)	> 100 µM (inactive)	36.9 µM (inactive)	0.2 µM (active)	< 0.01 µM (active)	> 100 µM (inactive)	94.8 µM (inactive)
COC(=O)/C=C1/OC(c2ccccc2)=CC1=O	15 µM (inactive)	22.5 µM (inactive)	18.6 µM (inactive)	23.2 µM (inactive)	24.7 µM (inactive)	24.6 µM (inactive)	19 µM (inactive)	18.6 µM (inactive)	19.9 µM (inactive)	19.1 µM (inactive)	13.7 µM (inactive)	22.9 µM (inactive)	6.38 µM (inactive)	13.5 µM (inactive)	18.9 µM (inactive)	17.5 µM (inactive)	17.6 µM (inactive)	18.6 µM (inactive)	16 µM (inactive)	16.7 µM (inactive)
ON(CCc1ccccn1)Cc1ccccc1	> 100 µM (inactive)	> 100 µM (inactive)	> 100 µM (inactive)	> 100 µM (inactive)	> 100 µM (inactive)	> 100 µM (inactive)	> 100 µM (inactive)	> 100 µM (inactive)	> 100 µM (inactive)	> 100 µM (inactive)	> 100 µM (inactive)	> 100 µM (inactive)	> 100 µM (inactive)	> 100 µM (inactive)	> 100 µM (inactive)	> 100 µM (inactive)	> 100 µM (inactive)	> 100 µM (inactive)	> 100 µM (inactive)	> 100 µM (inactive)
CC1(C)N=C(N)N=C(N)N1c1ccc(CCCCc2ccc(S(=O)(=O)F)cc2Cl)c(Cl)c1	4.46 µM (inactive)	8.34 µM (inactive)	27.7 µM (inactive)	143 µM (inactive)	5.56 µM (inactive)	18.5 µM (inactive)	1.16 µM (inactive)	17.2 µM (inactive)	4.93 µM (inactive)	0.984 µM (active)	37.2 µM (inactive)	4.18 µM (inactive)	0.995 µM (active)	2.22 µM (inactive)	4.05 µM (inactive)	106 µM (inactive)	4.07 µM (inactive)	0.258 µM (active)	0.39 µM (active)	2.52 µM (inactive)
NNC(=S)N/N=C(\C(=O)Nc1cccc(O)c1)C1C(=O)NC(=S)NC1=O	> 100 µM (inactive)	> 100 µM (inactive)	> 100 µM (inactive)	> 100 µM (inactive)	> 100 µM (inactive)	> 100 µM (inactive)	> 100 µM (inactive)	> 100 µM (inactive)	> 100 µM (inactive)	> 100 µM (inactive)	> 100 µM (inactive)	> 100 µM (inactive)	> 100 µM (inactive)	> 100 µM (inactive)	> 100 µM (inactive)	> 100 µM (inactive)		> 100 µM (inactive)	> 100 µM (inactive)	> 100 µM (inactive)
COc1nc(N)c(N=O)c(OCc2ccccc2)n1	3.52 µM (inactive)	> 10 µM (inactive)	> 10 µM (inactive)	6.55 µM (inactive)	> 10 µM (inactive)	> 10 µM (inactive)	7.59 µM (inactive)	> 10 µM (inactive)	> 10 µM (inactive)	> 10 µM (inactive)	> 10 µM (inactive)	> 10 µM (inactive)	8.39 µM (inactive)	7.35 µM (inactive)	3.12 µM (inactive)	> 10 µM (inactive)	> 10 µM (inactive)	5.89 µM (inactive)	> 10 µM (inactive)	> 10 µM (inactive)
Cc1cc(C)c2c(=O)n(CN3CCN(c4ccccc4)CC3)sc2n1	35.4 µM (inactive)	17.2 µM (inactive)	49.5 µM (inactive)	24.2 µM (inactive)	46.6 µM (inactive)	> 100 µM (inactive)	27 µM (inactive)	27.7 µM (inactive)	36.6 µM (inactive)	> 100 µM (inactive)	> 100 µM (inactive)	> 100 µM (inactive)	20.1 µM (inactive)	20.1 µM (inactive)	37.2 µM (inactive)	> 100 µM (inactive)	29.2 µM (inactive)	53.2 µM (inactive)	> 100 µM (inactive)	> 100 µM (inactive)
Oc1ccc2ccccc2c1OCc1nnc(CCCCCCCCc2nnc(COc3c(O)ccc4ccccc34)o2)o1		> 100 µM (inactive)	> 100 µM (inactive)	> 100 µM (inactive)	> 100 µM (inactive)	> 100 µM (inactive)	> 100 µM (inactive)	> 100 µM (inactive)	> 100 µM (inactive)	99.3 µM (inactive)	> 100 µM (inactive)	> 100 µM (inactive)	92.3 µM (inactive)	> 100 µM (inactive)	> 100 µM (inactive)	> 100 µM (inactive)	> 100 µM (inactive)	> 100 µM (inactive)	> 100 µM (inactive)	25.2 µM (inactive)
CCCC(=O)Oc1c2ccsc2c(OC(=O)CCC)c2ccsc12	0.407 µM (active)	1.09 µM (active)	4.48 µM (inactive)	1.04 µM (active)	0.92 µM (active)	4 µM (inactive)	1.11 µM (active)	2.76 µM (inactive)	0.951 µM (active)	3.13 µM (inactive)	4.6 µM (inactive)	1.1 µM (active)	1.96 µM (inactive)	2.23 µM (inactive)	0.359 µM (active)	0.75 µM (active)	0.74 µM (active)	1.14 µM (inactive)	4.18 µM (inactive)	7.64 µM (inactive)
CC12Nc3c(Cl)cc(Cl)cc3N1C(=O)c1ccccc12 (stereo unspecified)	> 100 µM (inactive)	> 100 µM (inactive)	42.2 µM (inactive)	91.8 µM (inactive)	> 100 µM (inactive)	68.7 µM (inactive)	> 100 µM (inactive)	> 100 µM (inactive)	> 100 µM (inactive)	> 100 µM (inactive)	18.5 µM (inactive)	17.9 µM (inactive)	58.7 µM (inactive)	> 100 µM (inactive)	> 100 µM (inactive)	> 100 µM (inactive)	> 100 µM (inactive)	> 100 µM (inactive)	92.3 µM (inactive)	> 100 µM (inactive)
C1CSCCSCCCSCCSCCCSCCSCCCSCCSC1	> 100 µM (inactive)	> 100 µM (inactive)	> 100 µM (inactive)	> 100 µM (inactive)	> 100 µM (inactive)	> 100 µM (inactive)	> 100 µM (inactive)	> 100 µM (inactive)	> 100 µM (inactive)	> 100 µM (inactive)	> 100 µM (inactive)	> 100 µM (inactive)	> 100 µM (inactive)	> 100 µM (inactive)	> 100 µM (inactive)	> 100 µM (inactive)	> 100 µM (inactive)		> 100 µM (inactive)	> 100 µM (inactive)
